Results as given in patent US12570615B2, “Quinazolinone derivatives” (Hoffmann-La Roche Inc., priority 2021, dated 2026).
Where a name gives a salt, the structure may show the parent alone.

Tests used:
[1] = biological target: BRAF (V600E) (Homo sapiens, UniProt P15056, V600E); test: KD BRAF (V600E) (Table 1); type: binding
[2] = system: P-ERK (ERK phospho-T202/Y204) in HCT116 cells expressing WT BRAF; test: HTRF assay for P-ERK determination in HCT116 cells (BRAF activation); type: cell-based; settings: Homo sapiens, HCT-116, drug incubation 1 hour, concentration giving 50% of the maximum activation achieved by Dabrafenib
Excerpt: (§1) A375 is a cellular cancer model expressing V600E mutated BRAF and HCT116 a cellular cancer model expressing WT BRAF. First generation BRAF inhibitors such as e.g. dabrafenib induce a paradox effect on tumour cells in that they inhibit the growth of V600E mutated BRAF cells (such as e.g. A375), while they activate growth in WT BRAF cells (such as e.g. HCT 116). ERK 1,2 phosphorylation (terminal member of the phosphorylation cascade of the MAPK pathway) is hereafter reported as main readout for the activation status of the MAPK pathway. DMEM no-phenol red medium supplemented with L-glutamine was purchased from (Thermo Fisher Scientific). Fetal bovine serum (FBS) was purchased from VWR. Advanced ERK phospho-T202/Y204 kit—10,000 tests was purchased from Cisbio cat #64AERPEH. A375 (catalog #CRL-1619) and HCT116 (catalog #CCL-247) cells were originally obtained from American type Culture Collection (ATCC) and banked by the Roche repository. 384-Well microplates utilized were purchased from Greiner Bio-One, 384-well, (With Lid, HiBase, Low volume cat 784-080).
(§2) Prior to the assay, A375 and HCT116 cell lines are maintained in DMEM no-phenol red medium supplemented with 10% fetal bovine serum (FBS). Following compound treatment, P-ERK levels are determined by measuring FRET fluorescence signal induced by selective binding of 2 antibodies provided in the mentioned kit (Cisbio cat #64AERPEH) on ERK protein when phosphorylated at Thr202/Tyr204. Briefly, 8000 cells/well in 12 μl media/well are plated in the 384-well plate and left overnight in the incubator (at 37° C. with 5% CO2-humidified atmosphere), the following day the plate is treated in duplicate with test compounds, dabrafenib and PLX8394 (the latter two as controls) at the following final drug concentrations: 10 μM-3 μM 1 μM-0.3 μM-0.1 μM-0.03 μM-0, 01 μM-0.003 μM-0.001 μM, all wells are subjected to DMSO normalization and drug incubation occurs for 1 hour. Then, […] of a 4× lysis buffer supplied with the kit are added to the wells, the plate is then centrifuged for 30 second (3000 rpm) and incubated on a plate shaker for 1 h at rt.
(§3) At the end of the incubation 4 μL/well of advanced P-ERK antibody solution (prepared according to manufacturer's instruction) followed by 4 μL/well of criptate P-ERK antibody solution (prepared according to manufacturer's instruction) (Cisbio cat #64AERPEH) are added to test wells.
(§4) In order to allow proper data normalization control wells non drug treated reported in the following table are always included in each plate (according to manufacturer's instruction):
(§5) The plate is then centrifuged at 3000 rpm for 30 second, sealed to prevent evaporation and incubated overnight in the dark at room temperature.
(§6) The plate is then analyzed and fluorescence emission value collected through a Pherastast FSX (BMG Labtech) apparatus at […].
(§7) The obtained fluorescence values are processed according to the formula Ratio=[…]*10000 then the average of the ratio on the blank is subtracted to all values.
Data are normalized in the case of HCT116 cells (BRAF activation) considering the average of the ratio (blank subtracted) derived by DMSO only treated cells as 0% and by considering the average of the ratio (blank subtracted) derived by Dabrafenib treated cells at the concentration which provides the highest signal as 100%. Individual points are fitted with either sigmoidal or bell shape curves. The EC50 is the concentration at which activation equal to 50% of the maximum activation achieved by Dabrafenib is obtained.

[3] = biological target: BRAF (wt) (Homo sapiens, UniProt P15056); test: KD BRAF (wt) (Table 1); type: binding
[4] = system: P-ERK (ERK phospho-T202/Y204) in A375 cells expressing V600E mutated BRAF; test: HTRF assay for P-ERK determination in A375 cells (BRAF inhibition); type: cell-based; settings: Homo sapiens, A-375, P-ERK level, drug incubation 1 hour, DMSO = 100%, 10 μM Dabrafenib = 0%
Excerpt: as §1, §2, §3, §4, §5, §6, §7
Data are normalized in the case of A375 cells (BRAF inhibition) considering the average of the ratio (blank subtracted) derived by DMSO only treated cells as 100% and by considering the average of the ratio (blank subtracted) derived by 10 μM Dabrafenib treated cells as 0%. Mean of the normalized points are fitted with sigmoidal curve and IC50 determined.

Chain of BRAF (V600E) (P15056 whole entry V600E): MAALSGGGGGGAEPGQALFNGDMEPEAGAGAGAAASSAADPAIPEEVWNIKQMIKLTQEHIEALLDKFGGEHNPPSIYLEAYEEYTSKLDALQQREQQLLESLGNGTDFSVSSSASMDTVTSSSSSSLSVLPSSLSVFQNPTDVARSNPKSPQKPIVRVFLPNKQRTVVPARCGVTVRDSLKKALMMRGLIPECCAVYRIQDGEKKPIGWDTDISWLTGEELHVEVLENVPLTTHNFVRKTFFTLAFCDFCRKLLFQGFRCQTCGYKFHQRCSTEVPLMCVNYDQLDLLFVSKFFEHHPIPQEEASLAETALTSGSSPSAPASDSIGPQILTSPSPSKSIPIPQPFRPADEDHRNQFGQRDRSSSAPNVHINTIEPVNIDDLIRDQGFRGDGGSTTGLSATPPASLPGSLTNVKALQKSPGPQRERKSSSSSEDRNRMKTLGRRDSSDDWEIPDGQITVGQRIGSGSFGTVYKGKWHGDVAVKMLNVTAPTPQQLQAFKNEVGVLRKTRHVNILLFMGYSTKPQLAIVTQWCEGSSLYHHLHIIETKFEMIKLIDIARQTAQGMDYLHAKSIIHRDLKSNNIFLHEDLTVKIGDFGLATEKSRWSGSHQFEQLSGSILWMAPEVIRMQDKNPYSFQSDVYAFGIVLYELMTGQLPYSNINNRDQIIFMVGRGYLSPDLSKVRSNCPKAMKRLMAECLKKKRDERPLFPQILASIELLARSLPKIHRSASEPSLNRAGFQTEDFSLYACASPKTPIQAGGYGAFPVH
Chain of BRAF (wt) (P15056 whole entry): as the sequence (P15056 whole entry V600E) above, with E600V counted along it

| Kd [1] [nM] | EC50 [2] [µM] | Kd [3] [nM] | IC50 [4] [nM] | SMILES |
| --- | --- | --- | --- | --- |
| 20.9 | 7.22 | 7.92 | 12.9 | CC(C)(C)OC(=O)CCCn1cnc2ccc(Nc3cccc(NS(=O)(=O)N4CC[C@@H](F)C4)c3C#N)cc2c1=O [Example 35, tert-butyl 4-[6-[2-cyano-3-[[(3R)-3-fluoropyrrolidin-1-yl]sulfonylamino]anilino]-4-oxo-quinazolin-3-yl]butanoate] |
| 273 | ≥ 10 | 131 | 114 | N#Cc1c(Nc2ccc3ncn(CCOCc4ccccc4)c(=O)c3c2)cccc1NS(=O)(=O)N1CC[C@@H](F)C1 [Example 36, (3R)—N-[3-[[3-(2-benzyloxyethyl)-4-oxo-quinazolin-6-yl]amino]-2-cyano-phenyl]-3-fluoro-pyrrolidine-1-sulfonamide] |
| 43.7 | 4.47 | 20.8 | 80.6 | CC(C)(C)OC(=O)N1CCC(CCn2cnc3ccc(Nc4cccc(NS(=O)(=O)N5CC[C@@H](F)C5)c4C#N)cc3c2=O)CC1 [Example 37, tert-butyl 4-[2-[6-[2-cyano-3-[[(3R)-3-fluoropyrrolidin-1-yl]sulfonylamino]anilino]-4-oxo-quinazolin-3-yl]ethyl]piperidine-1-carboxylate] |
| 443 | ≥ 10 | 174 | 5740 | CCN(C)S(=O)(=O)Nc1cccc(Nc2ccc3ncn(CCOCCOCCN)c(=O)c3c2)c1C#N [Example 38, 3-[2-[2-(2-aminoethoxy)ethoxy]ethyl]-6-[2-cyano-3-[[ethyl(methyl)sulfamoyl]amino]anilino]-4-oxo-quinazoline hydrochloride] |
| 48.3 | ≥ 10 | 11.6 | ≥ 10000 | N#Cc1c(Nc2ccc3ncn(CCCC(=O)O)c(=O)c3c2)cccc1NS(=O)(=O)N1CC[C@@H](F)C1 [Example 39, 4-[6-[2-cyano-3-[[(3R)-3-fluoropyrrolidin-1-yl]sulfonylamino]anilino]-4-oxo-quinazolin-3-yl]butanoic acid] |
| 7.88 | ≥ 10 | 3.71 | 334 | CC(C)(C)OC(=O)N1CCN(C(=O)CCCn2cnc3ccc(Nc4cccc(NS(=O)(=O)N5CC[C@@H](F)C5)c4C#N)cc3c2=O)CC1 [Example 40, tert-butyl 4-[4-[6-[2-cyano-3-[[(3R)-3-fluoropyrrolidin-1-yl]sulfonylamino]anilino]-4-oxo-quinazolin-3-yl]butanoyl]piperazine-1-carboxylate] |
| 9.29 | ≥ 10 | 6.19 | 1510 | CC(C)(C)OC(=O)N1CCC(NC(=O)CCCn2cnc3ccc(Nc4cccc(NS(=O)(=O)N5CC[C@@H](F)C5)c4C#N)cc3c2=O)CC1 [Example 41] |
| 203 | 6.2 | 79.2 | 162 | CN(C1CC1)S(=O)(=O)Nc1cccc(Nc2ccc3ncn(CCCC(=O)OC(C)(C)C)c(=O)c3c2)c1C#N [Example 42, tert-butyl 4-[6-[2-cyano-3-[[cyclopropyl(methyl)sulfamoyl]amino]anilino]-4-oxo-quinazolin-3-yl]butanoate] |
| 7.18 | 5.61 | 4.47 | 74.6 | CC(C)(C)OC(=O)NCCCn1cnc2ccc(Nc3cccc(NS(=O)(=O)N4CC[C@@H](F)C4)c3C#N)cc2c1=O [Example 43, tert-butyl N-[3-[6-[2-cyano-3-[[(3R)-3-fluoropyrrolidin-1-yl]sulfonylamino]anilino]-4-oxo-quinazolin-3-yl]propyl]carbamate] |
| 25.6 | 2.07 | 15.1 | 18.2 | N#Cc1c(Nc2ccc3ncn(CCCc4ccccc4)c(=O)c3c2)cccc1NS(=O)(=O)N1CC[C@@H](F)C1 [Example 44, (3R)—N-[2-cyano-3-[[4-oxo-3-(3-phenylpropyl)quinazolin-6-yl]amino]phenyl]-3-fluoro-pyrrolidine-1-sulfonamide] |
